Measurements reported in PubChem BioAssay (NCI).
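96-well plates; 48 h exposure; 5 concentrations. Endpoints by linear interpolation between flanking doses. Not reached: highest tested concentration assigned. At the GI50, growth is halved. The concentration for full growth arrest is given as TGI.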

Assays:
Assay in all cases: NCI anticancer screen, dose series, 48 h
[1] = test system: ACHN renal
[2] = test system: CAKI-1 renal
[3] = test system: HOP-62 NSCLC
[4] = test system: M14 melanoma
[5] = test system: MALME-3M melanoma
[6] = test system: NCI-H226 lung
[7] = test system: NCI-H460 lung
[8] = test system: OVCAR-3 ovarian
[9] = test system: SK-MEL-2 melanoma
[10] = test system: UACC-257 melanoma

SMILES	GI50 [1]	TGI [1]	TGI [2]	GI50 [3]	TGI [3]	GI50 [4]	TGI [4]	GI50 [5]	TGI [5]	GI50 [6]	TGI [6]	GI50 [7]	TGI [7]	GI50 [8]	TGI [8]	GI50 [9]	TGI [9]	GI50 [10]	TGI [10]	GI50 [2]
CC(=O)OCC1OC(O[C@@H]2C[C@H]3C(C)(C)[C@H](OC(C)=O)CC[C@]3(C)[C@H]3CC[C@@H]4[C@]5(CC[C@@]4(C)[C@@]32C)O[C@@H]([C@H](O)C(C)(C)O)C[C@@H]5C)C(O)C(O)C1O (some centres not stated)	9.23 µM	21.3 µM	13.5 µM	14.2 µM	27.3 µM	5.01 µM	17.6 µM	10.3 µM	22.4 µM	10.7 µM	28.2 µM	6.54 µM	20.8 µM	7.05 µM	20.5 µM	6.04 µM	19.7 µM	11.4 µM	24 µM	–
CCNC1=CC(=O)c2ncccc2C1=O	5.9 µM	19.6 µM	21.1 µM	0.583 µM	2.04 µM	1.11 µM	2.46 µM	1.03 µM	2.23 µM	1.85 µM	4.42 µM	0.439 µM	2 µM	0.807 µM	5.41 µM	2.36 µM	7.53 µM	1.42 µM	3 µM	7.5 µM
CC1=CC(=O)c2[nH]c3ccccc3c2C1=O	4.14 µM	7.54 µM	> 25 µM	–	> 25 µM	4.21 µM	7.62 µM	4.85 µM	8.54 µM	6.54 µM	22.7 µM	8.11 µM	> 25 µM	–	8.02 µM	5.37 µM	13.8 µM	4.57 µM	8.58 µM	14.4 µM
Nc1ccccc1C#Cc1ccccc1C#CCCCCO	24.7 µM	59 µM	67.1 µM	10.9 µM	33.5 µM	17.1 µM	36.2 µM	12.4 µM	44.4 µM	27.4 µM	61.3 µM	30.5 µM	> 100 µM	25.7 µM	63.4 µM	28.4 µM	> 100 µM	19.7 µM	50.9 µM	22.8 µM
COc1cc([N+](=O)[O-])c2ncccc2c1O	6.08 µM	> 100 µM	30.9 µM	2.05 µM	4.96 µM	1.45 µM	3.02 µM	1.99 µM	4.74 µM	2.01 µM	6.27 µM	2.86 µM	> 100 µM	4.76 µM	37.3 µM	9.91 µM	52.4 µM	2.56 µM	7.65 µM	4.84 µM
COc1ccc2c(c1)[n+]([O-])c(-c1ccc(Cl)c(Cl)c1)c(N)[n+]2[O-]	–	> 100 µM	> 100 µM	–	> 100 µM	–	72.2 µM	–	58.5 µM	–	> 100 µM	–	> 100 µM	–	68 µM	–	> 100 µM	–	46.4 µM	–
COCCOC(=O)CCn1cc(F)c(=O)[nH]c1=O	8.67 µg/mL	> 150 µg/mL	> 150 µg/mL	17.3 µg/mL	> 150 µg/mL	8.38 µg/mL	> 150 µg/mL	> 150 µg/mL	> 150 µg/mL	119 µg/mL	> 150 µg/mL	0.821 µg/mL	> 150 µg/mL	5.79 µg/mL	> 150 µg/mL	> 150 µg/mL	> 150 µg/mL	26.5 µg/mL	> 150 µg/mL	4.07 µg/mL
N#CCc1nc2c(s1)C(=O)c1ccccc1C2=O	–	27.4 µM	38.6 µM	–	28.3 µM	–	28.5 µM	–	34.3 µM	–	37.8 µM	–	47.6 µM	–	29.3 µM	–	35.6 µM	–	28.5 µM	–
NC(=NC1C2CC3CC(C2)CC1C3)Nc1ccc(I)cc1 (configuration not stated)	2.92 µM	9.45 µM	13.1 µM	2.46 µM	8.38 µM	2.08 µM	5.04 µM	2.09 µM	5.36 µM	5.41 µM	22.2 µM	3.66 µM	13 µM	3.97 µM	15 µM	2.63 µM	7.62 µM	2.16 µM	5.21 µM	3.29 µM
O=C1CCC(c2ccccc2)(c2ccccc2)CC1	–	> 100 µM	> 100 µM	–	> 100 µM	–	> 100 µM	–	> 100 µM	–	> 100 µM	–	> 100 µM	–	> 100 µM	–	> 100 µM	–	> 100 µM	–
C/C(=N\n1c(N)c(C#N)c(-c2ccc(Cl)cc2)c(C#N)c1=O)c1cccnc1	> 100 µM	> 100 µM	> 100 µM	> 100 µM	> 100 µM	> 100 µM	> 100 µM	> 100 µM	> 100 µM	> 100 µM	> 100 µM	> 100 µM	> 100 µM	> 100 µM	> 100 µM	> 100 µM	> 100 µM	> 100 µM	> 100 µM	> 100 µM
